# How the values were obtained:
# Homo sapiens [1] = assay: AUC (0 to 12 hrs) in german pulmonary tuberculosis patient at 600 mg/day, po; type: ADME, organism-based, Plasma; design: dose 600 mg/day, time < 12 hr, route oral; details: in vivo
# Homo sapiens [2] = assay: AUC (0 to 12 hrs) in kenyan pulmonary tuberculosis patient coinjected with HIV with body weight <=45 kg at 450 mg/day, po; type: ADME, organism-based, Plasma; design: time < 12 hr, dose 450 mg/day, route oral; details: in vivo
# Homo sapiens [3] = assay: AUC (0 to 12 hrs) in kenyan pulmonary tuberculosis patient with body weight >45 kg at 600 mg/day, po; type: ADME, organism-based, Plasma; design: dose 600 mg/day, time < 12 hr, route oral; details: in vivo
# Homo sapiens [4] = species: Homo sapiens; assay: Mean transient time in pulmonary tuberculosis patient in transit compartment model; type: ADME, organism-based; details: in vivo
# Homo sapiens [5] = assay: AUC (0 to infinity) in indian pulmonary tuberculosis patient at 450 mg/day, po; type: ADME, organism-based, Plasma; design: dose 450 mg/day, route oral, time infinity; details: in vivo
# Homo sapiens [6] = species: Homo sapiens; assay: Absorption rate constant in pulmonary tuberculosis patient in first order and lag time model; type: ADME, organism-based; details: in vivo
# Homo sapiens [7] = assay: AUC (0 to infinity) in indian pulmonary tuberculosis patient coinjected with HIV at 450 mg/day, po; type: ADME, organism-based, Plasma; design: dose 450 mg/day, time infinity, route oral; details: in vivo
# [8] = Apparent oral clearance in pulmonary tuberculosis patient in first order model; type: ADME, organism-based; details: human, in vivo
# Homo sapiens [9] = assay: AUC (0 to 24 hrs) in indonesian pulmonary tuberculosis patient at 600 mg/day, po; type: ADME, organism-based, Plasma; design: time < 24 hr, dose 600 mg/day, route oral; details: in vivo
# Homo sapiens [10] = assay: AUC (0 to 10 hrs) in north american pulmonary tuberculosis patient coinjected with HIV with body weight <=50 kg at 450 mg/day, po; type: ADME, organism-based, Plasma; design: time < 10 hr, dose 450 mg/day, route oral; details: in vivo
# Homo sapiens [11] = assay: AUC (0 to 12 hrs) in kenyan pulmonary tuberculosis patient with body weight <=45 kg at 450 mg/day, po; type: ADME, organism-based, Plasma; design: time < 12 hr, dose 450 mg/day, route oral; details: in vivo
# [12] = Apparent volume of distribution in pulmonary tuberculosis patient in Sequential 0 order and first order model; type: ADME, organism-based; details: human, in vivo; read-out: Vz
# Homo sapiens [13] = assay: AUC (0 to 12 hrs) in kenyan pulmonary tuberculosis patient coinjected with HIV with body weight >45 kg at 600 mg/day, po; type: ADME, organism-based, Plasma; design: time < 12 hr, dose 600 mg/day, route oral; details: in vivo
# [14] = Apparent volume of distribution in pulmonary tuberculosis patient in transit compartment model; type: ADME, organism-based; details: human, in vivo; read-out: Vz
# [15] = Apparent volume of distribution in pulmonary tuberculosis patient in first order and lag time model; type: ADME, organism-based; details: human, in vivo; read-out: Vz
# [16] = Apparent oral clearance in pulmonary tuberculosis patient in transit compartment model; type: ADME, organism-based; details: human, in vivo
# Homo sapiens [17] = species: Homo sapiens; assay: Absorption rate constant in pulmonary tuberculosis patient in Sequential 0 order and first order model; type: ADME, organism-based; details: in vivo
# Homo sapiens [18] = species: Homo sapiens; assay: Absorption rate constant in pulmonary tuberculosis patient in transit compartment model; type: ADME, organism-based; details: in vivo
# Homo sapiens [19] = assay: AUC (0 to 24 hrs) in indonesian pulmonary tuberculosis patient at 450 mg/day, po; type: ADME, organism-based, Plasma; design: dose 450 mg/day, time < 24 hr, route oral; details: in vivo
# Homo sapiens [20] = species: Homo sapiens; assay: Absorption rate constant in pulmonary tuberculosis patient in first order model; type: ADME, organism-based; details: in vivo
# [21] = Apparent oral clearance in pulmonary tuberculosis patient in first order and lag time model; type: ADME, organism-based; details: human, in vivo
# Homo sapiens [22] = assay: AUC (0 to 24 hrs) in south african pulmonary tuberculosis patient with body weight >50 kg at 600 mg/day, po; type: ADME, organism-based, Plasma; design: time < 24 hr, dose 600 mg/day, route oral; details: in vivo
# [23] = Apparent volume of distribution in pulmonary tuberculosis patient in first order model; type: ADME, organism-based; details: human, in vivo; read-out: Vz
# Homo sapiens [24] = assay: AUC (0 to 24 hrs) in south african pulmonary tuberculosis patient with body weight <=50 kg at 450 mg/day, po; type: ADME, organism-based, Plasma; design: time < 24 hr, dose 450 mg/day, route oral; details: in vivo
# Homo sapiens [25] = assay: AUC (0 to 10 hrs) in north american pulmonary tuberculosis patient coinjected with HIV with body weight >50 kg at 600 mg/day, po; type: ADME, organism-based, Plasma; design: time < 10 hr, dose 600 mg/day, route oral; details: in vivo
# [26] = Apparent oral clearance in pulmonary tuberculosis patient in Sequential 0 order and first order model; type: ADME, organism-based; details: human, in vivo
smiles,measurement,setting,value
CO[C@H]1/C=C/O[C@@]2(C)Oc3c(C)c(O)c4c(O)c(c(/C=N/N5CCN(C)CC5)c(O)c4c3C2=O)NC(=O)/C(C)=C\C=C\[C@H](C)[C@H](O)[C@@H](C)[C@@H](O)[C@@H](C)[C@H](OC(C)=O)[C@@H]1C [RIFAMPIN],AUC,Homo sapiens [1],60300 ng·h/mL
same,AUC,Homo sapiens [2],19600 ng·h/mL
same,AUC,Homo sapiens [3],23100 ng·h/mL
same,MTT,Homo sapiens [4],0.424 h
same,AUC,Homo sapiens [5],44600 ng·h/mL
same,Ka,Homo sapiens [6],1.64 L/h
same,AUC,Homo sapiens [7],28200 ng·h/mL
same,CL/F,[8],323 mL/min
same,AUC,Homo sapiens [9],79700 ng·h/mL
same,AUC,Homo sapiens [10],30100 ng·h/mL
same,AUC,Homo sapiens [11],23100 ng·h/mL
same,Vd,[12],51.5 L
same,AUC,Homo sapiens [13],19600 ng·h/mL
same,Vd,[14],53.2 L
same,Vd,[15],53.4 L
same,CL/F,[16],320 mL/min
same,Ka,Homo sapiens [17],1.23 L/h
same,Ka,Homo sapiens [18],1.15 L/h
same,AUC,Homo sapiens [19],48500 ng·h/mL
same,Ka,Homo sapiens [20],1.61 L/h
same,CL/F,[21],337 mL/min
same,AUC,Homo sapiens [22],30700 ng·h/mL
same,Vd,[23],52.8 L
same,AUC,Homo sapiens [24],30700 ng·h/mL
same,AUC,Homo sapiens [25],30100 ng·h/mL
same,CL/F,[26],320 mL/min
